The text below walks through data of patent US20230192799A1, “CNP Variants and Conjugates Thereof” (BIOMARIN PHARMACEUTICAL INC., priority 2019, published 2023).

Numbered stars: 1 amine (or outer) side, 2 acyl side, 3 side chain; on linkers, the order of the positions; unused ones are H or OH. Bridge positions count the residues as written; N and C are the ends. Side chains are listed from the residue outwards. Peptide text beside a SMILES is read from it. * marks the point of attachment. ξ: configuration not given here. C18 diacid = O=C(O)CCCCCCCCCCCCCCCCC(=O)*; ξγGlu = O=C(O)C(CCC(=O)[*:2])N[*:1]; AEEA = NCCOCCOCC(=O)O

Data set [1] deals with NPR2+/− rat chondrosarcoma cell model (heterozygous NPR2 knockout cells). The experiment in a line: cGMP stimulation assay in NPR2 mutant RCS cells. The format is cell-based.
Protocol: To determine the effects of CNP on subjects with short stature resulting from NPR2 mutations, cellular models of NPR2 mutations were developed. […] Rat chondrosarcoma (RCS) cells having either a knockout of, or heterozygous loss of function mutations in, the NPR2 gene were made by RNP transfection into RCS cells using 125 ng NPR2 variants or wild-type NPR2 plasmid DNA transfected into RCS or HEK293 cells. Single cell clones were seeded and genotyped by Sanger sequencing.
The NPR2 clones were created by creating insertions and deletions in the first exon of NPR2 in RCS cells. […] NPR2 mutant cells were tested for activity in response to CNP administration by a cGMP stimulation assay using a Catch Point Cyclic-GMP Fluorescent Assay after treatment with 6 nM of Pro-Gly CNP37. RCS (rat chondrosarcoma) cells were seeded at 40,000 cells/well in RCS culture media: DMEM+10% FBS+1× Pen Strep.
Data set [2] has as its system cGMP production in NIH3T3 cells and HEK293 cells. The experiment in a line: cGMP stimulation assay (CatchPoint Cyclic-GMP Fluorescent Assay). The data set is classed as cell-based. Conditions: peptide at T0, 7-point dose curve 100 nM to 0.0064 nM.
A short description of data set [3]: Stability of CNP variants or conjugates in human plasma (LC-MS/MS). The data set is classed as in vitro ADME. As for the experimental part: Stability of different CNP variants or CNP conjugates were tested for stability in human plasma over a 24 hour period. Briefly, a C18 fatty acid was fused to gamma glutamic acid using 2 OEG spacers (see e.g., Lau et al., J. Med. Chem 58:7370-7380, 2015). For the chromatography, Waters UPLC H-Class connected with BEH C18 1.7 um, 2.1×150 mm; Mobile Phase A: 1% DMSO 0.1% Formic Acid in Water; Mobile Phase B: 1% DMSO 0.1% Formic Acid in CAN. Mass Spectrometry was carried out using an AB Sciex QTRAP.
each CNP variant was prepared at 200 nM in Human Plasma Li Heparin and samples Incubated at 37° C. 5% CO2. The reaction was quenched at 0, 1, 2, 4, 8, 24 hours with 0.5M Sodium Citrate pH 4. Plasma proteins were precipitated with 0.2% Formic Acid in MeOH and samples prepared using WCX 96-well uElution plate and analyzed by LC-MS/MS 6500.
Stability of different conjugates was also analyzed at varying conditions. Briefly, the same protocol as above was used at 37° C. (control), 37° C.+0.5M NaCl, 37° C.+protease inhibitors or 4° C.

A short description of data set [4]: Stability of CNP variants by RP-HPLC, 10 days in PBS. The format is physicochemical. Conditions: for T0, % (% variant detected at T0): T0 (0 days); for T10, % (% variant detected at T10): T10 (10 days) in PBS, pH 7.4, at 37° C.
The test system of data set [5] is mouse model of Cardiofaciocutaneous syndrome using a Braf mutation (p.Q241R). As to conditions: in vivo; cited from earlier work.
For data set [6], the system named is mice deficient in Nf1 in type II collagen producing cells. As to conditions: daily injections; cited from earlier work.

Regarding `CC[C@H](C)[C@@H]1NC(=O)[C@H](CCCNC(=N)N)NC(=O)[C@H](CC(=O)O)NC(=O)[C@H](CC(C)C)NC(=O)[C@H](CCCCN)NC(=O)[C@H](CC(C)C)NC(=O)CNC(=O)[C@H](Cc2ccccc2)NC(=O)[C@@H](NC(=O)CNC(=O)[C@H](CCCCN)NC(=O)[C@H](CO)NC(=O)[C@H](CC(C)C)NC(=O)CNC(=O)[C@H](CCCCN)NC(=O)[C@H](CCCCN)NC(=O)[C@H](CC(N)=O)NC(=O)[C@H](C)NC(=O)CNC(=O)[C@H](CCCCN)NC(=O)[C@H](Cc2ccc(O)cc2)NC(=O)[C@H](CCCCN)NC(=O)[C@H](CCCNC(=N)N)NC(=O)[C@H](C)NC(=O)[C@H](CC(N)=O)NC(=O)[C@@H]2CCCN2C(=O)[C@H](Cc2c[nH]cn2)NC(=O)[C@H](CCC(=O)O)NC(=O)[C@H](CCC(N)=O)NC(=O)CNC(=O)[C@@H]2CCCN2)CSSC[C@@H](C(=O)O)NC(=O)CNC(=O)[C@H](CC(C)C)NC(=O)CNC(=O)[C@H](CO)NC(=O)[C@H](CCSC)NC(=O)[C@H](CO)NC(=O)CNC1=O` [Pro-Gly CNP37], the cGMP readout result in data set [1] (NPR2+/− rat chondrosarcoma cells, 6 nM of peptide (FIG. 4)) is listed as “rescues cGMP readout”. Also, the EC50 in data set [2] was 1.7 nM. For the same compound, the “stability in human plasma at varying conditions” value in data set [3] (37° C. (control), 37° C.+0.5M NaCl, 37° C.+protease inhibitors or 4° C. (FIG. 3)) was “greater stability compared to other variants”. Further, the “proteolysis in human plasma” value in data set [3] (human plasma, varying conditions (FIG. 3)) was “prone to proteolysis”. In data set [4], the “T0, % (% variant detected at T0)” value was 76.7% and the “T10, % (% variant detected at T10)” value was 39.5%.

As for `CC[C@H](C)[C@@H]1NC(=O)[C@H](CCCNC(=N)N)NC(=O)[C@H](CC(=O)O)NC(=O)[C@H](CC(C)C)NC(=O)[C@H](CCCCNC(=O)COCCOCCNC(=O)COCCOCCNC(=O)CCC(NC(=O)CCCCCCCCCCCCCCCCC(=O)O)C(=O)O)NC(=O)[C@H](CC(C)C)NC(=O)CNC(=O)[C@H](Cc2ccccc2)NC(=O)[C@@H](NC(=O)CNC(=O)[C@H](CCCNC(=N)N)NC(=O)[C@H](CO)NC(=O)[C@H](CC(C)C)NC(=O)CNC(=O)[C@H](CCCNC(=N)N)NC(=O)[C@H](CCCNC(=N)N)NC(=O)[C@H](CCC(N)=O)NC(=O)[C@H](C)NC(=O)CNC(=O)[C@H](CCCNC(=N)N)NC(=O)[C@H](Cc2ccc(O)cc2)NC(=O)[C@H](CCCNC(=N)N)NC(=O)[C@H](CCCNC(=N)N)NC(=O)[C@H](C)NC(=O)[C@H](CCC(N)=O)NC(=O)[C@@H]2CCCN2C(=O)[C@H](Cc2c[nH]cn2)NC(=O)[C@H](CCC(=O)O)NC(=O)[C@H](CCC(N)=O)NC(=O)CNC(=O)[C@@H]2CCCN2C(C)=O)CSSC[C@@H](C(=O)O)NC(=O)CNC(=O)[C@H](CC(C)C)NC(=O)CNC(=O)[C@H](CO)NC(=O)[C@H](CCSC)NC(=O)[C@H](CO)NC(=O)CNC1=O` (stereo partly drawn) [lipidated conjugate] (Ac-PGQEHPQARRYRGAQRRGLSRGCFGLK([AEEA-AEEA-ξγGlu-C18 diacid])LDRIGSMSGLGC-OH; disulfide 23-39), in data set [3] (human plasma, 200 nM, 37° C., over 24 hrs (FIG. 2)), the stability in plasma result is given as “improved stability in plasma compared to PEGylated or non-conjugated peptides”.

For the compound C-type natriuretic peptide [CNP], the “rescue of NPR2 signaling” value in data set [1] (cell model of NPR2 haploinsufficiency, exogenous CNP) is given as “dose-dependent rescue”. Besides, the body length result in data set [5] was “increases in body length”. Besides, in data set [6], the ERK phosphorylation result was “decreased ERK phosphorylation” and the short stature entry was “corrected the short stature”.

Take “PGQEHPNARKYKGANKKGLSKGCFGLKLDRIGSMSGLGC [CNP-5]”: in data set [4], the “T0, % (% variant detected at T0)” value came out at 83% and the “T10, % (% variant detected at T10)” value was determined as 47%.

With “PGQEHPNARRYRGANRRGLSRGCFGLKLDRIGSMSGLGC [CNP-6]”, in data set [4], the “T0, % (% variant detected at T0)” value was found to be 90% and the “T10, % (% variant detected at T10)” value stood at 58%.

On to “PGQEHPNARRYRGANRRGLSRGCFGLKLDRIGSMSGLGC [CNP-7]”, for which, in data set [4], the “T0, % (% variant detected at T0)” value turned out to be 77% and the “T10, % (% variant detected at T10)” value came out at 53%.

Consider “PGQEHPQARRYRGAQRRGLSRGCFGLKLDRIGSMSGLGC [CNP-8]”, for which, in data set [4], the “T0, % (% variant detected at T0)” value was found to be 91% and the “T10, % (% variant detected at T10)” value is given as 88%.

As for “PGQEHPQARRYRGAQRRGLSRGCFGLKLDRIGSMSGLGC [CNP-9]”, in data set [4], the “T0, % (% variant detected at T0)” value turned out to be 92% and the “T10, % (% variant detected at T10)” value turned out to be 77%.

A word on the EC50: it is the concentration at which the effect is half-maximal. A lower EC50 goes with an effect from little substance.
